Assay results taken from patent US20260035364A1, “BICYCLIC TETRAHYDROTHIAZEPINE DERIVATIVES” (Hoffmann-La Roche Inc., priority 2022, published 2026).

Key:
primary human T-cells [1] = test: IL2 secretion measurements in CD3-stimulated T-cells; type: cell-based; conditions: Homo sapiens, T-cell, 24 h, CD3 condition; for Emax: IL2 after 24 hours, 20 μM reference compound A1 = 100%, read-out: Emax IL2 (% activation); for EC50: IL2 secretion after 24 hours, read-out: Tcell IL2 CD3 EC50
Experimental: As readouts for T-cell activation, IL2 secretion after 24 hours and proliferation after 5 days was measured. Increases in IL2 secretion and proliferation upon compound treatment were assessed as the % of the maximum of reference compound A1. WO 2016/139181 discloses reference compound A1 as example 70. As a counter screen and to make sure that no unwanted TCR-independent activation was triggered, PBS conditions were run for all compounds.
Expanded primary human T-cells were thawed and cultured in RPMI 1640 (Gibco, #61870-010)+5% human serum (HS, Sigma, #H3667)+1 mM Sodium Pyruvate (Gibco, #11360-039)+50 μM 2-mercaptoethanol (Gibco, #31350-010) and 1× Pen-Strep (Life Technologies, #15140122) medium at density of 2 Mio/ml for 3 hours in 5% CO2, 37° C. and 95% humidity. For coating of plates, […] or PBS++ with CD3 antibody (concentration depending on donor and determined by CD3 titrations) was added 100 μl/well to Poly-D Lysine coated 96-well plates. Plates were sealed and incubated at room temperature for 3 hours on a table-top rocking platform. After incubation, plates were washed once with PBS−− and filled with 40 μl/well culture medium only. Compounds were then added (see next section) to medium only plates. After 3 hours of culturing the T-cells, cells were filtered through a cell strainer (Miltenyi Biotech, #130-041-407), counted again and concentration was adjusted to 1.25 Mio/ml.
Cells were then seeded 80 μl/well to the 40 μl/well including dispensed compounds according to plate layout. By adding cells, compounds were further diluted 1:3, and resulting in 100k cells/120 µl/well. After 24 hours 40 μl of supernatant was collected carefully from the top while not disturbing the cells and transferred into a round bottom 96 well plate. Collected and frozen supernatant was used for detection of IL2 using the IL-2 Human ProQuantum Immunoassay Kit (Invitrogen) or using the Human IL-2 ELISA Kit (Thermo Fisher).
(§1) Compound Treatment Compounds were added in a 5 or 6 pt dose response with the Tecan D300e Digital Dispenser, all conditions 3 times more concentrated than the end-concentration, since cells are added afterwards (80p1 cells to 40p1 prepared medium with treatment). The DR was starting at 20 μM or 10 μM final top concentration and a dilution factor of 3.333. The positive control was the reference compound A1 that was added in a dose response as well, additionally to 3 wells of only 20 μM representing the positive stimulator control. All wells were normalized with DMSO to a final concentration of 0.6% (0.2% end-concentration).
The immunoassay is done following the manufacturer's manual (Invitrogen, #A35603).
Additional information: For the immunoassay, MicroAmp™ EnduraPlate™ Optical 384-Well plates are used. Frozen supernatant is thawed and centrifuged for 5 minutes at 1000×g, both steps at 4° C. After centrifugation, required sample amount is taken from the top, and in a separate LightCycler V-bottom plate (working plate) diluted with assay dilution buffer, dilution factor depending on the PBS or CD3 condition but at least 1:3. IL-2 standard and blanks are prepared in the same V-bottom plate, standard with a range of 0.0128-5000 pg/ml (extended version). After preparation, 5 μl of sample dilutions or standard/blanks are transferred to the optical 384-well plate (assay plate) and the 10 μl reaction protocol is being followed. For measurement, the QuantStudio 12K Flex system is used. Raw data is extracted and IL-2 concentrations are calculated with the Thermo Fisher online app (apps.thermofisher.com/apps/proquantum).
ELISA is done following the manufacturer's manual (Thermo Fisher Scientific, #88-7025-88). Additional information: For the ELISA Nunc MaxiSorp 96 well plates are used. Frozen supernatant is thawed and centrifuged for 5 minutes at 1000×g, both steps at 4° C. […]

primary human T-cells [2] = test: T-cell proliferation assay (CellTiter-Glo); type: cell-based; conditions: Homo sapiens, T-cell, 120 h, CD3 condition; for Emax: 5 days, 20 μM reference compound A1 = 100%, read-out: Emax proliferation (% activation); for EC50: proliferation after 5 days, CellTiter-Glo, read-out: Tcell Proliferation CD3 EC50
Experimental: Expanded primary human T-cells are thawed and cultured in RPMI 1640 (Gibco, #61870-010)+5% human serum (HS, Sigma, #H3667)+1 mM Sodium Pyruvate (Gibco, #11360-039)+50 μM 2-mercaptoethanol (Gibco, #31350-010) and 1× Pen-Strep (Life Technologies, #15140122) medium at density of 2 Mio/ml for 3 hours in 5% CO2, 37° C. and 95% humidity. For coating of plates, PBS++ only or PBS++ with CD3 antibody (concentration depending on donor and determined by CD3 titrations) is added 100 μl/well to Poly-D Lysine coated 96-well plates. Plates are sealed and incubated at room temperature for 3 hours on a table-top rocking platform. After incubation, plates are washed once with PBS−− and filled with 40 μl/well culture medium only. Compounds are then added (see next section) to medium only plates. After 3 hours of culturing the T-cells, cells are filtered through a cell strainer (Miltenyi Biotech, #130-041-407), counted again and concentration is adjusted to 1.25 Mio/ml.
Cells are then seeded 80 μl/well to the 40 µl/well including dispensed compounds according to plate layout. By adding cells, compounds are further diluted 1:3, and resulting in 100k cells/120 µl/well. After 48 hours 40 μl of supernatant is collected carefully from the top while not disturbing the cells. Cells are assessed for proliferation 5 days later by measuring […] using CellTiterGlo (Promega).
as §1, with “Compounds” for “Compound Treatment Compounds”
After 5 days, for detection of ATP which is directly proportional to the number of cells present per well, the CellTiter-Glo® 2.0 Reagent is used. After visual control for toxicity or precipitations of the tested compounds, the plates are equilibrated to room temperature for 45 minutes. CellTiter-Glo® 2.0 Reagent is equilibrated to room temperature as well. After equilibration, an equal amount of CellTiter-Glo reagent is added to the cells (80 µl/well) with an electronic multichannel pipette. Plates are placed on a rocking platform for 15 minutes at room temperature. After incubation, the bottom of the plates is sealed with backing tape. Luminescence is measured with PHERAstar FSX (interval time 0.5 sec, gain 3000, focal height 15 mm) and exported as CSV file for analysis in Genedata screener.
Calculations and Data Reporting CD3 and PBS plates were analysed separately in Genedata Screener using Roche Normalization PCT_POS_CTRL with DMSO set as Neutral Control and 20 μM of the reference compound A1 set as Stimulator Control/100%.
For CD3 conditions EC50 and Emax of the fitted sigmoidal curve were reported. If no curve could be fitted, the EC50 was reported as blank field and the Emax was based on individual data points. […] Compounds which activate unstimulated cells (see IL2 measurements) or compounds which negatively affected viability were flagged.

DGKzeta = DGKzeta (Homo sapiens, UniProt Q13574); test: In vitro DGK inhibition assay (ADP-Glo, liposomes), DGKzeta; type: biochemical; set-up: hDGKzeta(1-928)-N-His; His (N); made in house; host or cells: Sf21 insect cells (baculovirus); conditions: 2 nM DGK ζ, 50 μM ATP, 125 uM DLG in liposomes, 1 hour reaction
Experimental: (§2) DGK α and ζ kinases use ATP to phosphorylate the substrate 1,2-dilauroyl-sn-glycerol (DLG, incorporated in the liposomes). ATP is converted to ADP as a result of this enzymatic reaction. After the kinase reaction, an ATP-depletion reagent is added to terminate the kinase reaction and deplete any remaining ATP, leaving only ADP. Second, a detection reagent is added to simultaneously convert ADP to ATP and allow the newly synthesized ATP to be converted to light using a coupled luciferase/luciferin reaction.
(§3) Purification of both enzymes was performed as previously described by Takahashi et al., PeerJ, 2018 (Takahashi, D.; Sakane, F. Expression and purification of human diacylglycerol kinase alpha from baculovirus-infected insect cells for structural studies. PeerJ 2018, 6, No. e5449).
(§4) A concentrated liposome solution was prepared in assay buffer without DTT and BSA: 2 mM of DLG in 21 mM of total liposome (2 mM DLG/8 mM PS/11 mM PC). The reaction mixtures contain the assay buffer with a final DLG concentration of 125 uM ATP concentrations of 25 μM (for DGKA assay) or 50 μM (for DGKZ assay). The reactions were started by addition of DGK a and (kinases at 4 nM and 2 nM final concentrations, respectively. After 1 hour reaction, the amount of ADP formed was detected with the ADP-Glo kinase assay (Promega) according to the manufacturer instructions. Compounds were added in 11-points dose response, starting at […], 1:3 dilutions, with a final DMSO concentration of 2%. The multidrop combi was used as a liquid handler and luminescence was read with 0.5 s by the envision reader (PE).

DGKalpha = DGKalpha (Homo sapiens, UniProt P23743); test: In vitro DGK inhibition assay (ADP-Glo, liposomes), DGKalpha; type: biochemical; set-up: hDGKalpha(1-735)-N-His; His (N); made in house; host or cells: Sf21 insect cells (baculovirus); conditions: 4 nM DGK α, 25 μM ATP, 125 uM DLG in liposomes, 1 hour reaction
Experimental: as §2
as §3, with “Full length DGKA and Z were expressed in Sf21 insect cells by infecting the cells with the baculovirus stock at MOI of 2. Purification” for “Purification”
as §4

Sequence of DGKalpha (P23743 whole entry): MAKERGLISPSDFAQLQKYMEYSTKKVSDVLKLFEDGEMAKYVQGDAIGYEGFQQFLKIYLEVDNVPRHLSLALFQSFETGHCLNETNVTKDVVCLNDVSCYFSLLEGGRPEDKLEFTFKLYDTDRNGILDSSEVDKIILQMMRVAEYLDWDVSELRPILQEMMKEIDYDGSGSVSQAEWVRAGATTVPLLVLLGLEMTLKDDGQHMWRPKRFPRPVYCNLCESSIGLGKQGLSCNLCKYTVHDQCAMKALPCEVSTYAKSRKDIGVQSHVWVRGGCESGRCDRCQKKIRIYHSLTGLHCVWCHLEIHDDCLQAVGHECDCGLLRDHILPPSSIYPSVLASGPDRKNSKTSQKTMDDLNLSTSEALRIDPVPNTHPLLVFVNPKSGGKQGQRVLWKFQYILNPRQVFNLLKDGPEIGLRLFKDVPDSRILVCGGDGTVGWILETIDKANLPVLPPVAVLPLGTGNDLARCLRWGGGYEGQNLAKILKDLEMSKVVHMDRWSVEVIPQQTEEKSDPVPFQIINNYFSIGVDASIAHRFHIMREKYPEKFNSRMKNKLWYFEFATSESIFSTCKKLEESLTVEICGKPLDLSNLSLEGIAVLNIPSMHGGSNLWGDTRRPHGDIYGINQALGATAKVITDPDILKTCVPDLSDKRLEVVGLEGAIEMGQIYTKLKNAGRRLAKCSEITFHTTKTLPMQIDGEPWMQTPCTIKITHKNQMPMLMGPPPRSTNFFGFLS
Sequence of DGKzeta (Q13574 whole entry): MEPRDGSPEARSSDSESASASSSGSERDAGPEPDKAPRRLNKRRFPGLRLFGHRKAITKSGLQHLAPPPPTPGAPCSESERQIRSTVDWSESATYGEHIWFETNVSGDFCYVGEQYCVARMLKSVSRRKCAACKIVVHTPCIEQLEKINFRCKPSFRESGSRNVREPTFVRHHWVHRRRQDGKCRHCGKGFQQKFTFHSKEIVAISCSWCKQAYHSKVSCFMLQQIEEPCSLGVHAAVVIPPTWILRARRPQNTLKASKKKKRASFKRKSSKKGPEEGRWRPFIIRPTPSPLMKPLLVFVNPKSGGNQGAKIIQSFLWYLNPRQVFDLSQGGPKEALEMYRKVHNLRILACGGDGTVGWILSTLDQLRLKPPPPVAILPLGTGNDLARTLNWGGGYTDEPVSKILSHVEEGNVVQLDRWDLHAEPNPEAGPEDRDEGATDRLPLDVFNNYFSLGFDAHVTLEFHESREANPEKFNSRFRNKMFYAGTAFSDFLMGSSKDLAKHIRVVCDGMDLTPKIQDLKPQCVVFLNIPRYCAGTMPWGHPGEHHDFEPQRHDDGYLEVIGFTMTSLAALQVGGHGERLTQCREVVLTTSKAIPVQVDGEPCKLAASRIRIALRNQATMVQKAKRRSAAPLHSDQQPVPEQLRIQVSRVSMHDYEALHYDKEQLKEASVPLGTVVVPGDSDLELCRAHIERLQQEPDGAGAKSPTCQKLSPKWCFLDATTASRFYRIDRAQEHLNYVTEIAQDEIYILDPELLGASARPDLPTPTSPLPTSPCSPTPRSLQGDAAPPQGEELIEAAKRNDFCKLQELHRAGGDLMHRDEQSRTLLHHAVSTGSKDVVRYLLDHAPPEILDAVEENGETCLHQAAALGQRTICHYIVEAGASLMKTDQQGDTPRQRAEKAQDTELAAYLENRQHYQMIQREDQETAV

| SMILES | Emax (primary human T-cells [1]) [%] | EC50 (primary human T-cells [1]) [µM] | Emax (primary human T-cells [2]) [%] | EC50 (primary human T-cells [2]) [µM] | IC50 (DGKzeta) [µM] | IC50 (DGKalpha) [µM] |
| --- | --- | --- | --- | --- | --- | --- |
| CC(C)(c1nnc(-c2ccc3c(c2)N(Cc2ccc(OCc4cccc(F)c4)cc2)C(=O)[C@@H](N)CS3(=O)=O)o1)S(C)(=O)=O [Example 13, (3R)-3-amino-5-[[4-[(3-fluorophenyl)methoxy]phenyl]methyl]-7-[5-(1-methyl-1-methylsulfonyl-ethyl)-1,3,4-oxadiazol-2-yl]-1,1-dioxo-2,3-dihydro-1λ6,5-benzothiazepin-4-one] | 181 | 1.3 | 92 | 1.14 |  |  |
| CC(C)(c1nnc(-c2cc3c(cc2F)S(=O)(=O)C[C@H](N)C(=O)N3Cc2ccc(-c3ccc(C(F)(F)F)cn3)cc2)o1)S(C)(=O)=O [Example 25, (3R)-3-amino-8-fluoro-7-[5-(1-methyl-1-methylsulfonyl-ethyl)-1,3,4-oxadiazol-2-yl]-1,1-dioxo-5-[[4-[5-(trifluoromethyl)-2-pyridyl]phenyl]methyl]-2,3-dihydro-1λ6,5-benzothiazepin-4-one] | 244 | 0.566 |  |  |  |  |
| CC(C)(c1nnc(-c2cc3c(cc2F)S(=O)(=O)C[C@H](N)C(=O)N3Cc2ccc(-c3noc(C(F)(F)F)n3)cc2)o1)S(C)(=O)=O [Example 28, (3R)-3-amino-8-fluoro-7-[5-(1-methyl-1-methylsulfonyl-ethyl)-1,3,4-oxadiazol-2-yl]-1,1-dioxo-5-[[4-[5-(trifluoromethyl)-1,2,4-oxadiazol-3-yl]phenyl]methyl]-2,3-dihydro-1λ6,5-benzothiazepin-4-one] | 307 | 0.185 |  |  | 0.573 | 1.16 |
| CC(C)(c1nnc(-c2ccc3c(c2)N(Cc2ccc(COc4ccccc4)cc2)C(=O)[C@@H](N)CS3(=O)=O)o1)S(C)(=O)=O [Example 8, (3R)-3-amino-7-[5-(1-methyl-1-methylsulfonyl-ethyl)-1,3,4-oxadiazol-2-yl]-1,1-dioxo-5-[[4-(phenoxymethyl)phenyl]methyl]-2,3-dihydro-1λ6,5-benzothiazepin-4-one] | 177 |  | 174 |  |  |  |
| CC(C)N(C)c1ccc(CN2C(=O)[C@@H](N)CS(=O)(=O)c3ccc(-c4nnc(C(C)(C)S(C)(=O)=O)o4)cc32)cc1 [Example 18, (3R)-3-amino-5-[[4-[isopropyl(methyl)amino]phenyl]methyl]-7-[5-(1-methyl-1-methylsulfonyl-ethyl)-1,3,4-oxadiazol-2-yl]-1,1-dioxo-2,3-dihydro-126,5-benzothiazepin-4-one] | 46 | > 10 | 63 | 6.35 |  |  |
